From ChEMBL document CHEMBL1151282, “Flavonoids and benzene derivatives from the flowers and fruit of Tetrapanax papyriferus” (J Nat Prod, 2005) come the findings set out here.

The data set is described as follows: Toxicity in brine shrimp after 24 hrs. The class given is organism-based. Conditions: artemia, in vivo.
As to `CC(=O)Oc1ccc(-c2oc3cc(OC(C)=O)cc(O)c3c(=O)c2OC(C)=O)cc1`, the LC50 at 24 h is 2210 µM.

`C[C@@H]1O[C@@H](Oc2cc(O)c3c(=O)c(O)c(-c4ccc(O)cc4)oc3c2)[C@H](OC(=O)/C=C/c2ccc(O)cc2)[C@H](OC(=O)/C=C/c2ccc(O)cc2)[C@H]1O` came in with an LC50 at 24 h of 400 µM. The value for `C[C@@H]1O[C@@H](Oc2cc(O)c3c(=O)c(O)c(-c4ccc(O)cc4)oc3c2)[C@H](OC(=O)/C=C/c2ccc(O)cc2)[C@H](O)[C@H]1O` was 570 µM.

The term LC50 denotes the concentration lethal to half of the exposed cells or organisms.
